Reference: patent publication US11738099B2, “Molecular probes and methods of use” (CASE WESTERN RESERVE UNIVERSITY, priority 2014, dated 2023)
“Also recorded” adds a separate entry of the source. Bridges are numbered along the chain shown (N, C = ends). Where no end group is shown, it is not given here.

Key:
[1] = Relaxivity at 1.5T in water, 37° C.; format: physicochemical
Description: Relaxivity is an important parameter for an MR contrast agent. It reflects how the relaxation rate of the surrounding water proton changes as a function of concentration, and it is directly associated with the agent's contrast enhancing capability during imaging. The relaxivity of the 4 contrast agents was tested at 37° C. in water and compared to Gd(HP-DO3A), Gd-DOTA and ZD2-Gd(HP-DO3A) (FIG. 26). […] Compared to Gd(HP-DO3A), Gd-DOTA, the size increase of the targeted contrast agents due to the peptides and PEG spacer could result in an increase of τR,^[42, 43] thus leading to higher relaxivities.

[2] = test system: PC3 prostate tumor xenografts; experiment: In vivo T1-weighted MRI at 7T, PC3 tumors; parameters: species or system mouse
Description: (§1) All MRI experiments were performed on a horizontal 7T Bruker scanner (Bruker Biospin Co., Billerica, Mass.). Imaging experiments were performed when the tumor size reached 5-8 mm in diameter. ZD2-Gd(HP-DO3A) was administered intravenously at the dose of 0.1 mmol/kg after acquiring pre-contrast images. Post-contrast images were obtained at 10 min interval up to 30 min. The axial slices of mouse at the tumor location were acquired using T1-weighted spin echo sequence with the following parameters: field of view (FOV): 3 cm; slice thickness: 1.2 mm; interslice distance: 1.2 mm; TR: 500 ms, TE: 8.1 ms; flip angle: 90°; average: 2; matrix size: 128×128. Contrast-to-noise ratio (CNR) at each time point was calculated by subtraction of the average signal intensity in the tumor and muscle, divided by the standard deviation of image noise. ProHance® (gadoteridol) was used as a control in the imaging experiments.

[3] = test system: LNCaP prostate tumor xenografts; experiment: In vivo T1-weighted MRI at 7T, LNCaP tumors; parameters: species or system mouse; conditions: 0.1 mmol/kg i.v., up to 30 min, 7T
Description: as §1

[4] = In vivo transmetallation and urinary excretion; parameters: species or system mouse; conditions: 0.1 mmol-Gd/kg
Description: Balb/c mice (Charles River Laboratories, Wilmington, Mass., USA) were randomly divided into groups of ZD2-Gd(HP-DO3A) and ProHance (n=5) and placed in the metabolism cages, 48 hours prior to injection. […] Urine samples were collected at 12 h pre-injection, and then 8, 24, 48, and 72 h post-injection from the metabolic box. The collected urine samples were centrifuged at 4,000 rpm for 15 min. The concentration of Gd(III), Zn(II), Cu(H), and Ca(II) in the supernatant of the urine samples was determined by ICP-OES after appropriate dilutions.

[5] = test system: TGFβ1-induced PC3 cancer cells; experiment: In vitro cellular binding, confocal microscopy; format: cell-based, human
Description: PC3 cell line was purchased from American Type Culture Collection (ATCC, Manassas, Va., USA), and maintained in RPMI/10% FBS medium. The cells were transfected with lentivirus to express green fluorescent protein (GFP) at least 48 h prior to harvesting. To induce EMT, PC3 cells were cultured in the presence of TGFβ1 (5 ng/ml) for 5 days. For in vitro binding assay, nuclei of cells were stained with Hoechst 33342 (Life Technologies, Brooklyn, N.Y., USA) 24 h prior to adding 500 nM ZD2-Cy5. Cells were maintained in medium containing ZD2-Cy5 for 24 h and monitored with confocal microscopy. Intense shaking was avoided for live-cell binding study to retain secreted EDB-FN on the glass.

[6] = test system: human prostate tumor sections; experiment: Histological staining of human prostate sections
Description: Human prostate sections were acquired from OriGene (Rockville, Md., USA). Antibodies used in this study include mouse monoclonal anti-Fibronectin antibody (BC-1, ab154210, Abcam, Cambridge, UK), Rhodamine-Red-X conjugated goat polyclonal anti-rabbit IgG (H+L) (Jackson Immuno Research Lab. West Grove, Pa., USA), and FITC conjugated goat polyclonal anti-mouse Fc (ab97264, Abcam). Frozen tissue section ([…]) imbedded in OCT was used for immunostaining and peptide staining. Paraffin embedded samples were de-paraffinized and processed with antigen retrieval using general methods. Sections were permeabilized and fixed with cold acetone followed by 0.5% BSA blocking for 1 hr at room temperature. Peptide staining was carried at the concentration of 5 uM. Slides were counter-stained with DAPI and mounted with coverslip using Prolong Gold regent (Invitrogen) before imaging. Stained tissue was imaged on an Olympus FV1000 confocal laser scanning microscope. GFP was observed using […] and the emission wavelength was read from 480 to 495 nm and represented as green. DAPI was observed using 405 nm laser and the emission wavelength was read from 450 to 470 nm and expressed as blue. Cy5.0 was observed using 635 nm laser and the emission wavelength was read from 655 to 755 nm and expressed as red.

[7] = test system: PC3-GFP flank tumor xenografts
Description: NIH athymic male nude mice, age 4-5 weeks, were maintained at the Athymic Animal Core Facility at Case Western Reserve University according to the animal protocols approved by the Institutional Animal Care and Use Committee (IACUC). For whole-body fluorescent imaging study, a flank tumor model was constructed. Each mouse was subcutaneously implanted in both flanks with 2×10^6 PC3-GFP cells mixed with an equal volume of in a mixture of PBS (50 μL culture medium and 50 μL PBS). Two to three weeks after inoculation, tumors reached an average size of 0.5 cm in diameter. The mice were used for imaging with Maestro FLEX In vivo Imaging System (Cambridge Research & Instrumentation, Inc. Woburn, Mass., USA) to monitor the targeting effect of ZD2 from 0 to 24 hours. Mice were intravenously injected with ZD2-Cy5 or CERAK-Cy5 (0.3 μmol/kg body weight). After 5 h, the mice were sacrificed and the tumor and various organs were imaged with the Maestro FLEX In vivo Imaging System.

TGFβ induced 4T1 cells = experiment: Binding of Cy5 probes to TGFβ induced 4T1 cells in vitro; format: cell-based; conditions: cell culture
Description: As tumor cells produce EDB-FN to promote its migration, we further validated if Cy5 labeled l-ZD2 (l-ZD2-Cy5) can bind to TGFβ induced 4T1 cells in vitro. […] To explain this, we hypothesize that in this form of cell culture, no clot formation can take action to provide binding sites for CREKA-Cy5. To validate our hypothesis, we further produced a 3D culture system that mimics the “soil” of metastatic tumor. In the 3D culture system, 4T1 cells were cultured in a microenvironment containing TGFβ, collagen, and fibrin. […] In overall, these evidences point to the conclusion that the use of EDB-FN for targeting micrometastasis may be advantageous compared with Fibronectin-Fibrin complexes in that EDB-FN appears earlier than Fibronectin-Fibrin in the pre-metastatic niche.

EDB fragment = EDB fragment (Homo sapiens, UniProt P02751); experiment: Peptide ELISA of HRP-conjugated peptides on coated EDB; format: binding; conditions: HRP conjugates
Description: A linear version of ZD2 (CTVRTSADA) SEQ ID NO: 42 was synthesized so that sulfhydryl group on cysteine could be used for conjugation with maleimide-activated […] (Sigma-Aldrich). Conjugation was carried out as instructed in the manual. The product of conjugation, ZD2-HRP, was used for peptide ELISA assay after coating a 96-well plate with purified EDB. 0.5% BSA in PBS was used to block non-specific binding for later steps. 0.39 μM to 50 μM of ZD2-HRP was incubated with coated EDB for an hour followed by extensive washing with TBST (0.1%). ABTS substrate was added subsequently and allowed to react for 30 min before the absorbance of solution in each well were measured at 415 nm. Non-coated wells added with ABTS were used as blank.
Cyclic ZD2 peptide (CTVRTSADC) (SEQ ID NO: 10) was synthesized using standard solid phase peptide chemistry and was characterized by MALDI-TOF mass spectrometry (FIG. 1C). The peptide was then labeled with a fluorescence chromophore cyanine 5 (Cy5) through a short PEG linker (NH2—(CH2CH2O)—CH2CH2COOH) to give a peptide fluorescence probe ZD2-Cy5. The peptide was also conjugated to peroxidase (ZD2-HRP) and the binding affinity of the peptide to EDB fragment was determined using peptide ELISA assay.
Similarly, CERAK-HRP is synthesized as a control.

EDB fragment, sequence (P02751 1271-1359 limits assumed): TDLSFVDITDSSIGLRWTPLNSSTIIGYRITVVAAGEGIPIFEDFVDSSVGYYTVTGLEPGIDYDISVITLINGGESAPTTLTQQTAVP

GVK-(Gd-DOTA): GVK peptide, PEG spacer, p-NCS-Bz-DOTA-GA, Gd complex (GVKSYNE; also: PEG spacer, p-NCS-Bz-DOTA-GA, Gd complex)
r1 [1]: 4.3 mM⁻¹ s⁻¹

CREKA-Gd(HP-DO3A): fibrin-FN clot targeting contrast agent, CREKA (Cys-Arg-Glu-Lys-Ala) conjugated to Gd(HP-DO3A) (also: conjugated to Gd(HP-DO3A) (Gd complex)) [reference compound]
signal enhancement in PC3 tumors ([2]; 0.1 mmol/kg i.v., up to 30 min, 7T): significant contrast enhancement in the periphery
difference in signal enhancement between the PC3 and LNCaP tumors ([2]; mouse, in vivo): no significant difference
signal enhancement in LNCaP tumors [3]: significant contrast enhancement in the periphery

ZD2-(Gd-DOTA): ZD2 peptide, PEG spacer, p-NCS-Bz-DOTA-GA, Gd complex (TVRTSAD; also: PEG spacer, p-NCS-Bz-DOTA-GA, Gd complex; listed as Homo sapiens)
r1 [1]: 4.1 mM⁻¹ s⁻¹

O=C([O-])CN1CCN(CC(=O)[O-])CCN(CC(=O)O)CCN(CC(=O)[O-])CC1.[Gd+3] [Gd-DOTA, reference compound]
r1 [1]: 2.9 mM⁻¹ s⁻¹

CNC(=O)CN(CCN(CCN(CC(=O)[O-])CC(=O)NC)CC(=O)[O-])CC(=O)[O-].[Gd+3] [Omniscan, reference compound]
urine concentration of endogenous metal ions post-injection vs pre-injection [4]: significant increase in Zn(II) concentration

IGK-(Gd-DOTA): IGK peptide, PEG spacer, p-NCS-Bz-DOTA-GA, Gd complex (IGKTNTL; also: PEG spacer, p-NCS-Bz-DOTA-GA, Gd complex)
r1 [1]: 4.6 mM⁻¹ s⁻¹

ZD2-Cy5: cyclic ZD2 (CTVRTSADC) labeled with Cy5 through a short PEG linker (CTVRTSADC-OH; disulfide 1-9 (inferred); not fully specified (N-terminus))
binding to the periphery of PC3 cells ([5]; TGFβ1-induced (post-EMT) PC3 cells, vs untreated cells): substantially more binding; also recorded: strong binding
binding to PC3 cells ([5]; uninduced cells): non-binding
staining of normal glands / BPH sections ([6]; 5 uM): unstained
tumor binding after blocking sections with BC-1 ([6]; competitive staining): inhibited
staining of human prostate tumor sections ([6]; high Gleason score (GS7, GS9), 5 uM): strong staining; also recorded: strong binding
accumulation in tumor, whole-body fluorescence imaging ([7]; 1.5 h after intravenous injection): significantly high accumulation
tumor accumulation, ex vivo Cy5 signal of tumor and organs ([7]; 5 hours after injection): specific accumulation
tumor to normal (T/N) ratio of Cy5 signal ([7]; maintained for up to 24 hours, compared with CERAK-Cy5): Relatively high
accumulation in the liver or lung ([7]; mouse, in vivo): Little accumulation

CREKA-Cy5: Cy5 probe of CREKA peptide, targets fibronectin-fibrin complexes (also: Cy5 conjugate) [reference compound]
binding to induced 4T1 cells (TGFβ induced 4T1 cells): no binding

CERAK-HRP: control peptide CERAK conjugated to HRP (also: conjugated to HRP) [reference compound]
binding to EDB protein (EDB fragment): no observable binding
